Test results reported in patent US11696924B2, “Combination therapy using PDK1 and PI3K inhibitors” (MEMORIAL SLOAN-KETTERING CANCER CENTER, priority 2015, dated 2023).

How the values were obtained:
[1] = test system: SGK1; assay: kinase activity and phosphorylation of immunoprecipitated endogenous SGK1; type: cell-based; settings: HCC1954, 4 hr, Crosstide substrate
Experimental: In vitro kinase activity of endogenous SGK1 and AKT was assayed by measuring [γ-32P] ATP incorporation into Crosstide substrate peptide [[…]] […] SGK1 and AKT were immunoprecipitated from HCC1954 cell line 4 hr after treatment. Immunoprecipitates were washed once with lysis buffer containing 500 mM NaCl, once with lysis buffer, and twice with Buffer A (50 mM Tris pH 7.5, 0.1 mM EGTA). Reactions were carried out in 40 μL total volume containing 0.1 mM [γ-32P] ATP (400-1000 cpm/pmol), 10 mM magnesium acetate, and 30 μM Crosstide peptide. Reactions were terminated by adding 10 μL […] EDTA. 40 μL of the reaction mix was spotted on P81 paper, which was immediately immersed into 50 mM ortophosphoric acid and washed several times. Papers were rinsed in acetone and air dried. Radioactivity was quantified by Cerenkov counting. One unit of enzyme activity was defined as the amount of enzyme that catalyzes incorporation of 1 nmol of [γ-32P] ATP into the substrate over one minute.

[2] = test system: PIK3CA-mutant breast cancer; assay: clinical trial NCT01870505, PIK3CA-mutant breast cancer; type: in vivo, patients; settings: with an aromatase inhibitor
Source text: We then explored whether SGK1 and pNDRG1 expression correlate with clinical outcome to PI3Kα inhibition by analyzing PIK3CA-mutant breast cancer samples from 18 patients treated with BYL719 in combination with an aromatase inhibitor (NCT01870505). Three of these tumors expressed high levels of SGK1 mRNA while the remaining 15 had medium/low levels of SGK1 mRNA. […] This was in agreement with the longer time to disease progression of this subset of patients when compared to the SGK1-high/pNDRG1-positive cohort (FIG. 4H, I).
The MSKCC Institutional Review Board approved the study. Pre-treatment FFPE blocks from patients treated with the PI3Kα inhibitor BYL719 enrolled in the clinical trial NCT01870505 conducted at MSKCC were used for IHC. Informed consent was obtained from all subjects.
For the study of patients treated with the PI3Kα inhibitor BYL719, pre-treatment biopsy FFPE blocks from patients enrolled in the clinical trial NCT01870505 conducted at MSKCC were used for IHC as described above. For the selection of the patients, PIK3CA and other tumor genomic drivers were analyzed using MSK-IMPACT (Cheng et al., 2015). […] SGK1 mRNA levels were determined using next-generation sequencing (NGS) and the expression results were presented as raw Reads Per Kilobase of transcript per Million mapped reads (RPKM). Mean and standard deviation (SD) was calculated across all the samples with available NGS data and overexpression of SGK1 was called for the samples with mRNA levels greater than mean+1SD. For 6 samples, RNA quality and quantity was not optimal for NGS. In these cases, SGK1 mRNA levels were determined using RT-qPCR as described above. RNA from low expressing (T47D) and high expressing (HCC1954) cell lines were used as positive control and absolute mRNA levels were quantified.

endogenous SGK1 kinase activity [1]: remains active
Compound: Cc1nc(NC(=O)N2CCC[C@H]2C(N)=O)sc1-c1ccnc(C(C)(C)C(F)(F)F)c1 [BYL719]
clinical response by RECIST ([2]; patients with pNDRG1-negative tumors): three had partial responses and eight had stable disease
clinical response ([2]; three patients, tumors with high SGK1, pNDRG1 positive): did not respond to therapy
clinical response ([2]; two patients, medium/low SGK1, pNDRG1 positive): rapidly progressed
